Reference: ChEMBL document CHEMBL3885861, “Open TG-GATES”

Species: Rattus norvegicus
Test: Open TG-GATES - Regimen: Single
Type: toxicity, organism-based, Sprague-Dawley
Design: regimen Single, gender Male, age 6 weeks
Details: in vivo, po, route gavage; for gamma-GTP / ALP / ALT / AST / BUN / CRE / Ca / Cl / DBIL / GLC / IP / LDH / Na / PL / RALB / TBIL / TC / TG / TP: tissue Plasma; for APTT / Bas / Eos / Fbg / Hb / Ht / Lym / MCH / MCHC / MCV / Mono / Neu / PT / Plat / RBC / Ret / WBC: tissue Blood; for KIDNEY_L / KIDNEY_R / KIDNEY_TOTAL: tissue Kidney; for LIVER: tissue Liver

CC(=O)N1CCN(c2ccc(OCC3COC(Cn4ccnc4)(c4ccc(Cl)cc4Cl)O3)cc2)CC1 (stereo not given) [KETOCONAZOLE]
gamma-GTP (0 mg/kg, 24 h, dose level Control): 1.2 IU/L | TERMINAL_BW (10 mg/kg, 3 h, dose level Low): 205.2 g | APTT (10 mg/kg, 3 h, dose level Low): 20.8 s | Bas (10 mg/kg, 3 h, dose level Low): 0% | Eos (10 mg/kg, 3 h, dose level Low): 0.8% | Fbg (10 mg/kg, 3 h, dose level Low): 286.4 mg/dL | Hb (10 mg/kg, 3 h, dose level Low): 12.9 g/dL | Ht (10 mg/kg, 3 h, dose level Low): 38.9% | Lym (10 mg/kg, 3 h, dose level Low): 79.2% | MCH (10 mg/kg, 3 h, dose level Low): 21.8 pg | MCHC (10 mg/kg, 3 h, dose level Low): 33.1% | MCV (10 mg/kg, 3 h, dose level Low): 66.1 fL | Mono (10 mg/kg, 3 h, dose level Low): 2% | Neu (10 mg/kg, 3 h, dose level Low): 17.2% | PT (10 mg/kg, 3 h, dose level Low): 16.9 s | Plat (10 mg/kg, 3 h, dose level Low): 122.3 x10_4/uL | RBC (10 mg/kg, 3 h, dose level Low): 590.2 x10_4/ul | Ret (10 mg/kg, 3 h, dose level Low): 8.5% | WBC (10 mg/kg, 3 h, dose level Low): 81.1 x10_2/uL | KIDNEY_L (10 mg/kg, 3 h, dose level Low): 1 g | KIDNEY_R (10 mg/kg, 3 h, dose level Low): 1 g | KIDNEY_TOTAL (10 mg/kg, 3 h, dose level Low): 2 g | LIVER (10 mg/kg, 3 h, dose level Low): 9.7 g | ALP (10 mg/kg, 3 h, dose level Low): 1809.4 IU/L | ALT (10 mg/kg, 3 h, dose level Low): 44.2 IU/L | AST (10 mg/kg, 3 h, dose level Low): 74.2 IU/L | BUN (10 mg/kg, 3 h, dose level Low): 12.6 mg/dL | CRE (10 mg/kg, 3 h, dose level Low): 0.2 mg/dL | Ca (10 mg/kg, 3 h, dose level Low): 10.8 mg/dL | Cl (10 mg/kg, 3 h, dose level Low): 105.4 meq/L | DBIL (10 mg/kg, 3 h, dose level Low): 0 mg/dL | GLC (10 mg/kg, 3 h, dose level Low): 183.6 mg/dL | IP (10 mg/kg, 3 h, dose level Low): 7.7 mg/dL | LDH (10 mg/kg, 3 h, dose level Low): 214.6 IU/L | Na (10 mg/kg, 3 h, dose level Low): 140.8 meq/L | PL (10 mg/kg, 3 h, dose level Low): 138.4 mg/dL | RALB (10 mg/kg, 3 h, dose level Low): 2.9 g/dL | TBIL (10 mg/kg, 3 h, dose level Low): 0.014 mg/dL | TC (10 mg/kg, 3 h, dose level Low): 76.6 mg/dL | TG (10 mg/kg, 3 h, dose level Low): 69.8 mg/dL | TP (10 mg/kg, 3 h, dose level Low): 5.3 g/dL | gamma-GTP (10 mg/kg, 3 h, dose level Low): 1.2 IU/L | TERMINAL_BW (10 mg/kg, 6 h, dose level Low): 202.4 g | APTT (10 mg/kg, 6 h, dose level Low): 20.6 s | Bas (10 mg/kg, 6 h, dose level Low): 0% | Eos (10 mg/kg, 6 h, dose level Low): 0.6% | Fbg (10 mg/kg, 6 h, dose level Low): 294 mg/dL | Hb (10 mg/kg, 6 h, dose level Low): 13.2 g/dL | Ht (10 mg/kg, 6 h, dose level Low): 39.7% | Lym (10 mg/kg, 6 h, dose level Low): 78.8% | MCH (10 mg/kg, 6 h, dose level Low): 21 pg | MCHC (10 mg/kg, 6 h, dose level Low): 33.2% | MCV (10 mg/kg, 6 h, dose level Low): 63.2 fL | Mono (10 mg/kg, 6 h, dose level Low): 1.4% | Neu (10 mg/kg, 6 h, dose level Low): 18.2% | PT (10 mg/kg, 6 h, dose level Low): 16.5 s | Plat (10 mg/kg, 6 h, dose level Low): 134.3 x10_4/uL | RBC (10 mg/kg, 6 h, dose level Low): 628.6 x10_4/ul | Ret (10 mg/kg, 6 h, dose level Low): 8.4% | WBC (10 mg/kg, 6 h, dose level Low): 66.2 x10_2/uL | KIDNEY_L (10 mg/kg, 6 h, dose level Low): 0.9 g | KIDNEY_R (10 mg/kg, 6 h, dose level Low): 0.9 g | KIDNEY_TOTAL (10 mg/kg, 6 h, dose level Low): 1.8 g | LIVER (10 mg/kg, 6 h, dose level Low): 8.6 g | ALP (10 mg/kg, 6 h, dose level Low): 1453.2 IU/L | AST (10 mg/kg, 6 h, dose level Low): 72.2 IU/L | BUN (10 mg/kg, 6 h, dose level Low): 11 mg/dL | CRE (10 mg/kg, 6 h, dose level Low): 0.2 mg/dL | Ca (10 mg/kg, 6 h, dose level Low): 11 mg/dL | Cl (10 mg/kg, 6 h, dose level Low): 105.8 meq/L | DBIL (10 mg/kg, 6 h, dose level Low): 0.004 mg/dL | GLC (10 mg/kg, 6 h, dose level Low): 172.8 mg/dL | IP (10 mg/kg, 6 h, dose level Low): 9.2 mg/dL | LDH (10 mg/kg, 6 h, dose level Low): 238.6 IU/L | Na (10 mg/kg, 6 h, dose level Low): 142.2 meq/L | PL (10 mg/kg, 6 h, dose level Low): 146.6 mg/dL | RALB (10 mg/kg, 6 h, dose level Low): 3.1 g/dL | TBIL (10 mg/kg, 6 h, dose level Low): 0.028 mg/dL | TC (10 mg/kg, 6 h, dose level Low): 81.4 mg/dL | TG (10 mg/kg, 6 h, dose level Low): 57 mg/dL | TP (10 mg/kg, 6 h, dose level Low): 5.5 g/dL | gamma-GTP (10 mg/kg, 6 h, dose level Low): 1 IU/L | TERMINAL_BW (10 mg/kg, 9 h, dose level Low): 202 g | APTT (10 mg/kg, 9 h, dose level Low): 21.2 s | Bas (10 mg/kg, 9 h, dose level Low): 0% | Eos (10 mg/kg, 9 h, dose level Low): 0.6% | Fbg (10 mg/kg, 9 h, dose level Low): 303 mg/dL | Hb (10 mg/kg, 9 h, dose level Low): 12.8 g/dL | Ht (10 mg/kg, 9 h, dose level Low): 38.6% | Lym (10 mg/kg, 9 h, dose level Low): 79.8% | MCH (10 mg/kg, 9 h, dose level Low): 20.9 pg | MCHC (10 mg/kg, 9 h, dose level Low): 33.3% | MCV (10 mg/kg, 9 h, dose level Low): 62.8 fL | Mono (10 mg/kg, 9 h, dose level Low): 2% | Neu (10 mg/kg, 9 h, dose level Low): 17% | PT (10 mg/kg, 9 h, dose level Low): 16.2 s | Plat (10 mg/kg, 9 h, dose level Low): 120.8 x10_4/uL | RBC (10 mg/kg, 9 h, dose level Low): 614.6 x10_4/ul | Ret (10 mg/kg, 9 h, dose level Low): 8.5% | WBC (10 mg/kg, 9 h, dose level Low): 64.8 x10_2/uL | KIDNEY_L (10 mg/kg, 9 h, dose level Low): 1 g | KIDNEY_R (10 mg/kg, 9 h, dose level Low): 1 g | KIDNEY_TOTAL (10 mg/kg, 9 h, dose level Low): 1.9 g | LIVER (10 mg/kg, 9 h, dose level Low): 8.9 g | ALP (10 mg/kg, 9 h, dose level Low): 1290.2 IU/L | ALT (10 mg/kg, 9 h, dose level Low): 33 IU/L | AST (10 mg/kg, 9 h, dose level Low): 63.8 IU/L | BUN (10 mg/kg, 9 h, dose level Low): 11.2 mg/dL | CRE (10 mg/kg, 9 h, dose level Low): 0.1 mg/dL | Ca (10 mg/kg, 9 h, dose level Low): 10.6 mg/dL | Cl (10 mg/kg, 9 h, dose level Low): 104.8 meq/L | DBIL (10 mg/kg, 9 h, dose level Low): 0 mg/dL | GLC (10 mg/kg, 9 h, dose level Low): 182.4 mg/dL | IP (10 mg/kg, 9 h, dose level Low): 9.8 mg/dL | LDH (10 mg/kg, 9 h, dose level Low): 211.4 IU/L | Na (10 mg/kg, 9 h, dose level Low): 140.6 meq/L | PL (10 mg/kg, 9 h, dose level Low): 137.8 mg/dL | RALB (10 mg/kg, 9 h, dose level Low): 3.1 g/dL | TBIL (10 mg/kg, 9 h, dose level Low): 0.018 mg/dL | TC (10 mg/kg, 9 h, dose level Low): 80.2 mg/dL | TG (10 mg/kg, 9 h, dose level Low): 52.8 mg/dL | TP (10 mg/kg, 9 h, dose level Low): 5.6 g/dL | gamma-GTP (10 mg/kg, 9 h, dose level Low): 1.2 IU/L | TERMINAL_BW (10 mg/kg, 24 h, dose level Low): 212.3 g | APTT (10 mg/kg, 24 h, dose level Low): 20.9 s | Bas (10 mg/kg, 24 h, dose level Low): 0% | Eos (10 mg/kg, 24 h, dose level Low): 1% | Fbg (10 mg/kg, 24 h, dose level Low): 300 mg/dL | Hb (10 mg/kg, 24 h, dose level Low): 13 g/dL | Ht (10 mg/kg, 24 h, dose level Low): 38.5% | Lym (10 mg/kg, 24 h, dose level Low): 81% | MCH (10 mg/kg, 24 h, dose level Low): 21.3 pg | MCV (10 mg/kg, 24 h, dose level Low): 63.4 fL | Mono (10 mg/kg, 24 h, dose level Low): 1.8% | Neu (10 mg/kg, 24 h, dose level Low): 15.6% | PT (10 mg/kg, 24 h, dose level Low): 16.5 s | Plat (10 mg/kg, 24 h, dose level Low): 129.6 x10_4/uL | RBC (10 mg/kg, 24 h, dose level Low): 608 x10_4/ul | Ret (10 mg/kg, 24 h, dose level Low): 7.8% | WBC (10 mg/kg, 24 h, dose level Low): 74 x10_2/uL | KIDNEY_L (10 mg/kg, 24 h, dose level Low): 0.9 g | KIDNEY_R (10 mg/kg, 24 h, dose level Low): 0.9 g | KIDNEY_TOTAL (10 mg/kg, 24 h, dose level Low): 1.9 g | LIVER (10 mg/kg, 24 h, dose level Low): 10 g | ALP (10 mg/kg, 24 h, dose level Low): 1553.2 IU/L | ALT (10 mg/kg, 24 h, dose level Low): 44.2 IU/L | AST (10 mg/kg, 24 h, dose level Low): 71 IU/L | BUN (10 mg/kg, 24 h, dose level Low): 16 mg/dL | CRE (10 mg/kg, 24 h, dose level Low): 0.2 mg/dL | Ca (10 mg/kg, 24 h, dose level Low): 10.7 mg/dL | Cl (10 mg/kg, 24 h, dose level Low): 107.2 meq/L | DBIL (10 mg/kg, 24 h, dose level Low): 0 mg/dL | GLC (10 mg/kg, 24 h, dose level Low): 176.6 mg/dL | IP (10 mg/kg, 24 h, dose level Low): 7.1 mg/dL | LDH (10 mg/kg, 24 h, dose level Low): 209 IU/L | Na (10 mg/kg, 24 h, dose level Low): 141.6 meq/L | PL (10 mg/kg, 24 h, dose level Low): 140 mg/dL | RALB (10 mg/kg, 24 h, dose level Low): 3.1 g/dL | TBIL (10 mg/kg, 24 h, dose level Low): 0.006 mg/dL | TC (10 mg/kg, 24 h, dose level Low): 74 mg/dL
